From ChEMBL document CHEMBL1926587, “Molecular insights into human monoamine oxidase (MAO) inhibition by 1,4-naphthoquinone: evidences for menadione (vitamin K3) acting as a competitive and reversible inhibitor of MAO” (Bioorg Med Chem, 2011) come the findings set out here.

The source made the active and inactive calls. The rule behind the calls is not given here.

Series [1] concerns the target T1, Amine oxidase [flavin-containing] B (Homo sapiens, UniProt P27338).
T1 sequence (P27338 whole entry): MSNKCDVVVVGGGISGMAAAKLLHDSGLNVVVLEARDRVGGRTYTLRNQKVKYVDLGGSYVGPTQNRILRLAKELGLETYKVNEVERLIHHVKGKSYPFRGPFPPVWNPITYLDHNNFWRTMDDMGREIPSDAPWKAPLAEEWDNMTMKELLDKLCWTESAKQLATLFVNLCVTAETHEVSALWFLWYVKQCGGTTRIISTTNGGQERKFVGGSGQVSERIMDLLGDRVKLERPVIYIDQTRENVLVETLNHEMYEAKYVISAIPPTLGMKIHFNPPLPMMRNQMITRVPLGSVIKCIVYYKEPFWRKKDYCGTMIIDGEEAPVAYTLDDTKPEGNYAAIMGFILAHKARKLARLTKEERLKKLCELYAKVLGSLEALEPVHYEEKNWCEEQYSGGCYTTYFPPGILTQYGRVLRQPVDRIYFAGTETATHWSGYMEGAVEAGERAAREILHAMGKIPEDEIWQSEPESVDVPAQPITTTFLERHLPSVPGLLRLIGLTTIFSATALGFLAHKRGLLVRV
Nature of the series: Competitive inhibition of human MAO-B.

Series [2] addresses T2, Amine oxidase [flavin-containing] A (Homo sapiens, UniProt P21397).
T2 sequence (P21397 whole entry): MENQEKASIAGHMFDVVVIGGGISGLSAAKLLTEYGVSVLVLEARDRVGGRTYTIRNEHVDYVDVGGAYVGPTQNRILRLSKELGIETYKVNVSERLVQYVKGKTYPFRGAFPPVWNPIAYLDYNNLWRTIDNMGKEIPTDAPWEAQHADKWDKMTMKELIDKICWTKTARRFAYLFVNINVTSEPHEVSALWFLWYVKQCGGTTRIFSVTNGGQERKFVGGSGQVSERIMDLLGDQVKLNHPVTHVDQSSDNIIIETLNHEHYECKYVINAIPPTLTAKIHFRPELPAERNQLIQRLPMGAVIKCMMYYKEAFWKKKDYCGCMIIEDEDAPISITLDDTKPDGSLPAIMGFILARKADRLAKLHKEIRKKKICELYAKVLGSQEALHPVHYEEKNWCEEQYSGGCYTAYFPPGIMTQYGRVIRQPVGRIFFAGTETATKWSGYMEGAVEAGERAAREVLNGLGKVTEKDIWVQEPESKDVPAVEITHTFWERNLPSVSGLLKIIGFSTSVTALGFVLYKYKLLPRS
Nature of the series: Competitive inhibition of human MAO-A.

The species entered for the next series is Homo sapiens. The series is described as follows: Selectivity ratio of Ki for human recombinant MAO-A to Ki for human recombinant MAO-B.
The species named for another series is Rattus norvegicus. Nature of the series: Selectivity ratio of Ki for rat MAO-A to Ki for rat MAO-B.
Series [3] concerns the target T1, Amine oxidase [flavin-containing] B. Nature of the series: Competitive inhibition of human recombinant MAO-B expressed in baculovirus infected insect cells using benzylamine as substrate by Lineweaver-Burk plot analysis.
Series [4] shares this target. Nature of the series: Reversible inhibition of human recombinant MAO-B expressed in baculovirus infected insect cells assessed as decrease in Km at 5 uM preincubated for 20 mins measured 3 hrs post dialysis by Lineweaver-Burk plot analysis.
The target of series [5] is T2, Amine oxidase [flavin-containing] A. The series is described as follows: Reversible inhibition of human recombinant MAO-A expressed in baculovirus infected insect cells assessed as decrease in Km at 5 uM preincubated for 20 mins measured 3 hrs post dialysis by Lineweaver-Burk plot analysis.
Series [6] deals with T1, Amine oxidase [flavin-containing] B. The series is described as follows: Competitive inhibition of human recombinant MAO-B expressed in baculovirus infected insect cells assessed as reduction in fluorescence at 10 to 12 uM by spectrofluorimetry relative to control. Further details: scale not given: the % may be the effect or the level left.
Series [7] concerns the target T2, Amine oxidase [flavin-containing] A. The series is described as follows: Competitive inhibition of human recombinant MAO-A expressed in baculovirus infected insect cells using p-tyramine as substrate by Lineweaver-Burk plot analysis.
For series [8] the target is unchanged. Nature of the series: Competitive inhibition of human recombinant MAO-A expressed in baculovirus infected insect cells assessed as increase in Km at 5 uM by Lineweaver-Burk plot analysis.
For series [9], the target named is T1, Amine oxidase [flavin-containing] B. Nature of the series: Competitive inhibition of human recombinant MAO-B expressed in baculovirus infected insect cells assessed as increase in Km at 5 uM by Lineweaver-Burk plot analysis.
The subject of a further series is Armoracia rusticana. The series is described as follows: Inhibition of horseradish peroxidase at 100 uM after 45 mins by amplex red assay in the presence of hydrogen peroxide.
For series [10], the target named is T2, Amine oxidase [flavin-containing] A. The series is described as follows: Noncompetitive inhibition of human recombinant MAO-A expressed in baculovirus infected insect cells using p-tyramine as substrate by Lineweaver-Burk plot analysis.
The target is the same in series [11]. The series is described as follows: Reversible inhibition of human recombinant MAO-A expressed in baculovirus infected insect cells assessed as increase in Vmax at 5 uM preincubated for 20 mins measured 3 hrs post dialysis by Lineweaver-Burk plot analysis.
For series [12], the target named is T1, Amine oxidase [flavin-containing] B. Nature of the series: Competitive inhibition of human recombinant MAO-B expressed in baculovirus infected insect cells assessed as reduction in fluorescence at 20 to 25 uM by spectrofluorimetry relative to control. Further details: scale not given: the % may be the effect or the level left.
Series [13] deals with T2, Amine oxidase [flavin-containing] A. The series is described as follows: Noncompetitive inhibition of human recombinant MAO-A expressed in baculovirus infected insect cells assessed as reduction in Vmax at 5 uM by Lineweaver-Burk plot analysis.

Turning to `CC1=C(C)C(=O)c2cc(C)ccc2C1=O`, the figures for the Ki in series [1] and in [2] were 3 µM and 6 µM, respectively.
For `C#CCN(C)[C@H](C)Cc1ccccc1`, the Ratio Ki in the series filed under Homo sapiens and in the series listed under Rattus norvegicus was 250 in each case.
For the molecule `C#CCN[C@@H]1CCc2ccccc21`, the values for the Ratio Ki in the series listed under Homo sapiens and in the series filed under Rattus norvegicus were 50 and 93, respectively.
Turning to `CC1=CC(=O)c2ccccc2C1=O` [MENADIONE], the Ki in [3] was 0.4 µM; in series [7] it was 26 µM. Moreover, the “inhibition (INH)” value in series [4], in [5], in series [8] and in series [9] was “Active” throughout. In addition, in [6], the Activity was found to be 50%. Further, the Ratio Ki in the series filed under Homo sapiens is 60. In the series on Armoracia rusticana, the inhibition result is “inactive”.
In the case of `O=C1C=CC(=O)c2ccccc21` [NAPHTHOQUINONE], the Ki in series [3] was determined as 1.5 µM; in series [10], 7.7 µM. The “inhibition (INH)” value in series [4], in series [11], in series [13] and in [9] was “Active” throughout. Moreover, the Activity in series [12] is on record as 50%. Further, the inhibition entry with Armoracia rusticana was “inactive”.

The term Ki denotes the equilibrium dissociation constant of an inhibitor or competing ligand from its target.
